From PMC9974930 (Journal of medicinal chemistry, 2023)

How the values were obtained:
[1] = biological target: T1, recombinant human sEH (HsEH) (Homo sapiens, UniProt P34913); assay: biochemical; details: for LLE (ligand lipophilicity efficiency): LLE = pIC50-cLogP
T1 sequence (P34913 1-555): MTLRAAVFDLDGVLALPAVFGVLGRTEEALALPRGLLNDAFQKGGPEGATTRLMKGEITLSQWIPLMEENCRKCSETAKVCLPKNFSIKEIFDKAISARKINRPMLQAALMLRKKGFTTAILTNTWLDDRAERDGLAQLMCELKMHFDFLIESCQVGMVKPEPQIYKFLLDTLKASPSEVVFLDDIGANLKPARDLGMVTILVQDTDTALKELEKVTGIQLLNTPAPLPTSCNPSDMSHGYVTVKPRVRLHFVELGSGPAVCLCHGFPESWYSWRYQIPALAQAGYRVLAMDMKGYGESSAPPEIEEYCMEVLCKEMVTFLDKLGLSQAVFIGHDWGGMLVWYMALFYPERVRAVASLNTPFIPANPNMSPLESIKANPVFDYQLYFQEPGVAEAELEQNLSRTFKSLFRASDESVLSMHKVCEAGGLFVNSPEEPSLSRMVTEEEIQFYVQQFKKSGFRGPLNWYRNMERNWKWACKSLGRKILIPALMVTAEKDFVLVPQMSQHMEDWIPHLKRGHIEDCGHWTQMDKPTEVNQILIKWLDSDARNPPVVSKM

CFA-induced AIA mice = assay: CFA-induced arthritis; type: in vivo, Kunming mice; details: 10 mg / kg ip

Q: Which “LLE (ligand lipophilicity efficiency)” value [1] does the source give for `C[C@]12C[C@@H]3C[C@](C)(C1)C[C@@](NC(=O)Nc1ccc(CN4CCCC(C(=O)O)C4)cc1F)(C3)C2` (stereo partly drawn) [D, 1-(4-(3-((1r,3R,5S,7r)-3,5-Dimethyladamantan-1-yl)ureido)-3-fluorobenzyl) piperidine-3-carboxylic acid] here?
A: The value was 7.656.

Q: `C[C@]12C[C@@H]3C[C@](C)(C1)C[C@@](NC(=O)Nc1ccc(CN4CCC(C(N)=O)CC4)cc1F)(C3)C2` [E1, 1-(4-(3-((1r,7r)-3,5-Dimethyladamantan-1-yl)ureido)-3-fluorobenzyl)piperidine-4-carboxamide] was tested. Which “LLE (ligand lipophilicity efficiency)” value [1] did it give?
A: Its value is 5.557.

Q: For `CC(O)CNC(=O)C1CCN(Cc2ccc(NC(=O)N[C@@]34C[C@@H]5C[C@@](C)(C[C@@](C)(C5)C3)C4)c(F)c2)CC1` (stereo partly drawn) [E2, 1-(4-(3-((1r,7r)-3,5-Dimethyladamantan-1-yl)ureido)-3-fluorobenzyl)-N-(2-hydroxypropyl)piperidine-4-carboxamide], which “LLE (ligand lipophilicity efficiency)” value [1] is on record?
A: The value was 3.267.

Q: With `C[C@]12C[C@@H]3C[C@](C)(C1)C[C@@](NC(=O)Nc1ccc(CN4CCC(C(=O)NC(CO)CO)CC4)cc1F)(C3)C2` [E3, N-(1,3-Dihydroxypropan-2-yl)-1-(4-(3-((1r,7r)-3,5-dimethyladamantan-1-yl)ureido)-3-fluorobenzyl)piperidine-4-carboxamide] as the molecule, how does the “LLE (ligand lipophilicity efficiency)” value [1] read?
A: The value was 5.090.

Q: `C[C@]12C[C@@H]3C[C@](C)(C1)C[C@@](NC(=O)Nc1ccc(CN4CCC(C(=O)NC(CO)(CO)CO)CC4)cc1F)(C3)C2` [E4, N-(1,3-Dihydroxy-2-(hydroxymethyl)propan-2-yl)-1-(4-(3-((1r,7r)-3,5-dimethyladamantan-1-yl)ureido)-3-fluorobenzyl)piperidine-4-carboxamide] was tested. Which “LLE (ligand lipophilicity efficiency)” value [1] did it give?
A: Its value is 6.459.

Q: How did the “LLE (ligand lipophilicity efficiency)” value [1] turn out when `C[C@]12C[C@@H]3C[C@](C)(C1)C[C@@](NC(=O)Nc1ccc(CN4CCC(C(=O)N(CCO)CCO)CC4)cc1F)(C3)C2` [E5, 1-(4-(3-((1r,7r)-3,5-Dimethyladamantan-1-yl)ureido)-3-fluorobenzyl)-N,N-bis(2-hydroxyethyl)piperidine-4-carboxamide] was run?
A: Its value is 5.585.

Q: Which “LLE (ligand lipophilicity efficiency)” value [1] does the source give for `CC(=O)N1CCCN(C(=O)C2CCCN(C(=O)c3ccc(NC(=O)N[C@@]45C[C@@H]6C[C@@](C)(C[C@@](C)(C6)C4)C5)c(F)c3)C2)CC1` (stereo partly drawn) [F1, 1-(4-(3-(4-Acetyl-1,4-diazepane-1-carbonyl)piperidine-1-carbonyl)-2-fluorophenyl)-3-((1r,3R,5S,7r)-3,5-dimethyladamantan-1-yl)urea] here?
A: Its value is 6.801.

Q: With `CCC(=O)N1CCCN(C(=O)C2CCCN(C(=O)c3ccc(NC(=O)N[C@@]45C[C@@H]6C[C@@](C)(C[C@@](C)(C6)C4)C5)c(F)c3)C2)CC1` (stereo partly drawn) [F2, 1-((1r,3R,5S,7r)-3,5-Dimethyladamantan-1-yl)-3-(2-fluoro-4-(3-(4-propionyl-1,4-diazepane-1-carbonyl)piperidine-1-carbonyl)phenyl)urea] as the molecule, how does the “LLE (ligand lipophilicity efficiency)” value [1] read?
A: The value was 6.164.

Q: For `CCC(C)C(=O)N1CCCN(C(=O)C2CCCN(C(=O)c3ccc(NC(=O)N[C@@]45C[C@@H]6C[C@@](C)(C[C@@](C)(C6)C4)C5)c(F)c3)C2)CC1` (stereo partly drawn) [F3, 1-((1r,3R,5S,7r)-3,5-Dimethyladamantan-1-yl)-3-(2-fluoro-4-(3-(4-(2-methylbutanoyl) −1,4-diazepane-1-carbonyl)piperidine-1-carbonyl)phenyl)urea], which “LLE (ligand lipophilicity efficiency)” value [1] is on record?
A: The value was 4.847.

Q: How did the “LLE (ligand lipophilicity efficiency)” value [1] turn out when `CCC(C)C(=O)N1CCCN(C(=O)C2CCCN(Cc3ccc(NC(=O)N[C@@]45C[C@@H]6C[C@@](C)(C[C@@](C)(C6)C4)C5)c(F)c3)C2)CC1` (stereo partly drawn) [G2, 1-((1r,3R,5S,7r)-3,5-Dimethyladamantan-1-yl)-3-(2-fluoro-4-((3-(4-(2-methylbutanoyl) −1,4-diazepane-1-carbonyl)piperidin-1-yl)methyl)phenyl)urea] was run?
A: The value was 4.986.

Q: For `C=CC(=O)N1CCCN(C(=O)C2CCCN(Cc3ccc(NC(=O)N[C@@]45C[C@@H]6C[C@@](C)(C[C@@](C)(C6)C4)C5)c(F)c3)C2)CC1` (stereo partly drawn) [G3, 1-(4-((3-(4-acryloyl-1,4-Diazepane-1-carbonyl)piperidin-1-yl)methyl)-2-fluorophenyl) −3-((1r,3R,5S,7r)-3,5-dimethyladamantan-1-yl)urea], which “LLE (ligand lipophilicity efficiency)” value [1] is on record?
A: The value was 5.598.

Q: With `C=C(C)C(=O)N1CCCN(C(=O)C2CCCN(Cc3ccc(NC(=O)N[C@@]45C[C@@H]6C[C@@](C)(C[C@@](C)(C6)C4)C5)c(F)c3)C2)CC1` (stereo partly drawn) [G4, 1-((1r,3R,5S,7r)-3,5-Dimethyladamantan-1-yl)-3-(2-fluoro-4-((3-(4-methacryloyl-1,4-diazepane-1-carbonyl)piperidin-1-yl)methyl)phenyl)urea] as the molecule, how does the “LLE (ligand lipophilicity efficiency)” value [1] read?
A: The value was 4.821.

Q: `CCC(=O)N1CCC(CC(=O)N2CCCN(C(=O)c3ccc(NC(=O)N[C@@]45C[C@@H]6C[C@@](C)(C[C@@](C)(C6)C4)C5)c(F)c3)CC2)CC1` [H1, 1-((1r,3R,5S,7r)-3,5-Dimethyladamantan-1-yl)-3-(2-fluoro-4-(4-(2-(1-propionylpiperidin-4-yl)acetyl)-1,4-diazepane-1-carbonyl)phenyl)urea] was tested. Which “LLE (ligand lipophilicity efficiency)” value [1] did it give?
A: The value was 5.848.

Q: `C=C(C)C(=O)N1CCC(CC(=O)N2CCCN(C(=O)c3ccc(NC(=O)N[C@@]45C[C@@H]6C[C@@](C)(C[C@@](C)(C6)C4)C5)cc3)CC2)CC1` [H3, 1-((1r,3R,5S,7r)-3,5-Dimethyladamantan-1-yl)-3-(4-(4-(2-(1-methacryloylpiperidin-4-yl)acetyl)-1,4-diazepane-1-carbonyl)phenyl)urea] was tested. Which “LLE (ligand lipophilicity efficiency)” value [1] did it give?
A: The value was 5.530.

Q: `CC(CN(C)C)N1CCC(CC(=O)N2CCCN(C(=O)c3ccc(NC(=O)N[C@@]45C[C@@H]6C[C@@](C)(C[C@@](C)(C6)C4)C5)c(F)c3)CC2)CC1` (stereo partly drawn) [H4, 1-((1r,3R,5S,7r)-3,5-Dimethyladamantan-1-yl)-3-(4-(4-(2-(1-(1-(dimethylamino)propan-2-yl)piperidin-4-yl)acetyl)-1,4-diazepane-1-carbonyl)-2-fluorophenyl)urea] was tested. Which “LLE (ligand lipophilicity efficiency)” value [1] did it give?
A: Its value is 3.920.

Q: Which “LLE (ligand lipophilicity efficiency)” value [1] does the source give for `CC(=O)N1CCC(CC(=O)N2CCCN(Cc3ccc(NC(=O)N[C@@]45C[C@@H]6C[C@@](C)(C[C@@](C)(C6)C4)C5)c(F)c3)CC2)CC1` [I1, 1-(4-((4-(2-(1-Acetylpiperidin-4-yl)acetyl)-1,4-diazepan-1-yl)methyl)-2-fluorophenyl)-3-((1r,3R,5S,7r)-3,5-dimethyladamantan-1-yl)urea] here?
A: Its value is 6.119.

Q: Which results are given for `CCC(=O)N1CCC(CC(=O)N2CCCN(Cc3ccc(NC(=O)N[C@@]45C[C@@H]6C[C@@](C)(C[C@@](C)(C6)C4)C5)c(F)c3)CC2)CC1` [I2, 1-((1r,3R,5S,7r)-3,5-Dimethyladamantan-1-yl)-3-(2-fluoro-4-((4-(2-(1-propionylpiperidin-4-yl)acetyl)-1,4-diazepan-1-yl)methyl)phenyl)urea]?
A: IC50 [1]: 350 pM; LLE (ligand lipophilicity efficiency) [1]: 5.623

Q: How did the “LLE (ligand lipophilicity efficiency)” value [1] turn out when `CCC(C)C(=O)N1CCC(CC(=O)N2CCCN(Cc3ccc(NC(=O)N[C@@]45C[C@@H]6C[C@@](C)(C[C@@](C)(C6)C4)C5)c(F)c3)CC2)CC1` (stereo partly drawn) [I3, 1-((1r,3R,5S,7r)-3,5-Dimethyladamantan-1-yl)-3-(2-fluoro-4-((4-(2-(1-(2-methylbutanoyl)piperidin-4-yl)acetyl)-1,4-diazepan-1-yl)methyl)phenyl)urea] was run?
A: Its value is 4.337.

Q: `COC(=O)N1CCC(CC(=O)N2CCCN(Cc3ccc(NC(=O)N[C@@]45C[C@@H]6C[C@@](C)(C[C@@](C)(C6)C4)C5)c(F)c3)CC2)CC1` [I4, Methyl-4-(2-(4-(4-(3-((1r,3R,5S,7r)-3,5-dimethyladamantan-1-yl)ureido)-3-fluorobenzyl)-1,4-diazepan-1-yl)-2-oxoethyl)piperidine-1-carboxylate] was tested. Which “LLE (ligand lipophilicity efficiency)” value [1] did it give?
A: The value was 5.125.

Q: `C[C@]12C[C@@H]3C[C@](C)(C1)C[C@@](NC(=O)Nc1ccc(CN4CCCN(C(=O)CC5CCN(CCO)CC5)CC4)cc1F)(C3)C2` [I5, 1-((1r,3R,5S,7r)-3,5-Dimethyladamantan-1-yl)-3-(2-fluoro-4-((4-(2-(1-(2-hydroxyethyl)piperidin-4-yl)acetyl)-1,4-diazepan-1-yl)methyl)phenyl)urea] was tested. Which “LLE (ligand lipophilicity efficiency)” value [1] did it give?
A: Its value is 4.937.

Q: With `CN(C)CCN1CCC(CC(=O)N2CCCN(Cc3ccc(NC(=O)N[C@@]45C[C@@H]6C[C@@](C)(C[C@@](C)(C6)C4)C5)c(F)c3)CC2)CC1` [I7, 1-((1r,3R,5S,7r)-3,5-Dimethyladamantan-1-yl)-3-(4-((4-(2-(1-(2-(dimethylamino)ethyl)piperidin-4-yl)acetyl)-1,4-diazepan-1-yl)methyl)-2-fluorophenyl)urea] as the molecule, how does the “LLE (ligand lipophilicity efficiency)” value [1] read?
A: Its value is 4.517.

Q: With `CCN(CC)CCN1CCC(CC(=O)N2CCCN(Cc3ccc(NC(=O)N[C@@]45C[C@@H]6C[C@@](C)(C[C@@](C)(C6)C4)C5)c(F)c3)CC2)CC1` [I8, 1-(4-((4-(2-(1-(2-(Diethylamino)ethyl)piperidin-4-yl)acetyl)-1,4-diazepan-1-yl)methyl) −2-fluorophenyl)-3-((1r,3R,5S,7r)-3,5-dimethyladamantan-1-yl)urea] as the molecule, how does the “LLE (ligand lipophilicity efficiency)” value [1] read?
A: Its value is 3.910.

Q: What does the source list for `Cc1ccc(-c2cc(C(F)(F)F)nn2-c2ccc(S(N)(=O)=O)cc2)cc1` [celecoxib, reference compound]?
A: reduced foot swelling, thickness (CFA-induced AIA mice): 17.99%; reduced foot swelling, width (CFA-induced AIA mice): 6.4%; body weight change (CFA-induced AIA mice; 24 h of drug treatment): increase in body weight; effect on pain threshold, in words (CFA-induced AIA mice; hot plate): did not significantly raise the pain threshold at 2 h
